Measurements: patent US11236086B2, “Substituted pyrrolopyridines as inhibitors of activin receptor-like kinase” (BLUEPRINT MEDICINES CORPORATION, priority 2017, dated 2022)

Legend:
[1] = molecular target: T1, ALK2R206H (mutant ALK2, N-terminally tagged with GST) (Homo sapiens, UniProt Q04771, R206H); experiment: ALK binding assay (LANTHASCREEN TR-FRET competitive binding, displacement of Kinase Tracer 178); settings: read-out: Binding Assay (IC50 class)
T1 construct: purchased Carna Bioscience or ThermoFisher 09-148 or PV6232
T1 sequence (Q04771 21-509 R206H): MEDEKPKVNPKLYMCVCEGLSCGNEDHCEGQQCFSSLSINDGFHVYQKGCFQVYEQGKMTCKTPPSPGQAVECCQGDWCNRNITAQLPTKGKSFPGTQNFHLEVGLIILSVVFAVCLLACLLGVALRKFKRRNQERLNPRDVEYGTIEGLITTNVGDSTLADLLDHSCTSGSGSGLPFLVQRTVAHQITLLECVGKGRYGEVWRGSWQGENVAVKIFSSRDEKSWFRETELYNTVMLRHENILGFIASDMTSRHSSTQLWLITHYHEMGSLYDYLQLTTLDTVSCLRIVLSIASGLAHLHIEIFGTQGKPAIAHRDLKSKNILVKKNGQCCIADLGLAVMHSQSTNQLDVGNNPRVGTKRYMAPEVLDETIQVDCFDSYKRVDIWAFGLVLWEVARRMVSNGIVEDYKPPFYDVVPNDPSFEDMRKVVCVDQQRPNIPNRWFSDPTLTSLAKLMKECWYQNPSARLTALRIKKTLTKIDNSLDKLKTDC
Procedure, shortened: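 GST-tagged ALK2 R206H (2-5 nM) mixed with Eu-anti-GST antibody (4-10 nM), Kinase Tracer 178 (50 nM, near its Kd) and compound titration (1% DMSO) in Kinase Buffer A, 30 min at room temperature. Tracer displacement read as TR-FRET ratio, normalized to controls; IC50 from 4-parameter fit.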

[2] = molecular target: T2, human ALK2 R206H (Homo sapiens, UniProt Q04771, R206H); experiment: Cell-based ALK2-R206H cell activity assay (Smad1-Ser463/Ser465 phosphorylation by AlphaLISA in HEK293-ALK2-R206H cells); settings: phospho-Smad1 AlphaLISA, read-out: Cell Line (Cell Assay, IC50 class)
T2 construct: expressed in transfected cells; host or cells: HEK293 (ATCC CRL1573), lentivirus transduction, blasticidin selection
T2 sequence (Q04771 21-509 R206H): T1 sequence (Q04771 21-509 R206H)
Procedure, shortened: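 HEK293 stable line expressing human ALK2 R206H with C-terminal FLAG, plated overnight in serum-free medium. Cells were treated 2-3 h with compound over 10 3-fold doses, top 10 μM or 1 μM, in duplicate. Phospho-Smad1 Ser463/465 in lysate was read by AlphaLISA; IC50 was normalised to DMSO (0%) and 1 μM LDN193189 (100%).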

IC50 [1]	IC50 [2]	Compound
≤ 0.01 µM	≤ 0.1 µM	O=C(O[C@H]1C[C@H](F)C1)N1CCN(c2ccnc3[nH]c(-c4cn(C(F)F)cn4)cc23)CC1 [Compound 345]
≤ 0.01 µM	≤ 0.1 µM	O=C(OC1COC1)N1CCN(c2ccnc3[nH]c(-c4ccc(C5(O)CCOCC5)cn4)cc23)CC1 [Compound 446]
≤ 0.01 µM	≤ 0.1 µM	Cn1cnc(-c2[nH]c3nccc(N4CCN(C(=O)O[C@H]5C[C@@H](F)C5)CC4)c3c2C#N)c1 [Compound 296]
≤ 0.01 µM	≤ 0.1 µM	N#Cc1c(-c2cn3c(n2)COCC3)[nH]c2nccc(N3CCN(C(=O)OC4COC4)CC3)c12 [Compound 394]
≤ 0.01 µM	≤ 0.1 µM	CCOC(=O)N1CCN(c2ccnc3[nH]c(-c4cnn(C(F)F)c4)c(C#N)c23)CC1 [Compound 258]
≤ 0.01 µM	≤ 0.1 µM	Cn1cc(-c2[nH]c3nccc(N4CCN(C(=O)O[C@H]5CCOC5)CC4)c3c2Cl)cn1 [Compound 330]
≤ 0.01 µM	≤ 0.1 µM	O=C(OC1COC1)N1CCN(c2ccnc3[nH]c(-c4ccc(C5(O)CCC5)cc4)cc23)CC1 [Compound 392]
≤ 0.01 µM	≤ 0.1 µM	O=C(OC1COC1)N1CCN(c2ccnc3[nH]c(-c4ccc([C@]5(O)CCOC5)cc4)cc23)CC1 [Compound 429]
≤ 0.01 µM	≤ 0.1 µM	CCN1CCN(c2ccc(-c3cc4c(N5CCN(C(=O)C6CC6)CC5)ccnc4[nH]3)cc2)CC1 [Compound 418]
≤ 0.01 µM	≤ 0.1 µM	Cc1nc(-c2cc3c(N4CCN(C(=O)O[C@@H]5CC(F)(F)C5(F)F)CC4)ccnc3[nH]2)cn1C [Compound 433]
≤ 0.01 µM	≤ 0.1 µM	Cc1nc(-c2cc3c(N4CCN(C(=O)O[C@H]5C[C@H](F)C5)CC4)ccnc3[nH]2)sc1C [Compound 323]
≤ 0.01 µM	≤ 0.1 µM	O=C(C1CC1)N1CCN(c2ccnc3[nH]c(-c4ccc(C5(O)CCCOC5)cc4)cc23)CC1 (centres unmarked) [Compound 385]
≤ 0.01 µM	≤ 0.1 µM	Cc1nc(-c2[nH]c3nccc(N4CCN(C(=O)O[C@H]5C[C@@H](F)C5)CC4)c3c2C#N)cn1C [Compound 356]
≤ 0.01 µM	≤ 0.1 µM	O=C(OC1COC1)N1CCN(c2ccnc3[nH]c(-c4nc5c(s4)CSCC5)cc23)CC1 [Compound 417]
≤ 0.01 µM	≤ 0.1 µM	CC(C)N1CCC[C@H](c2ccc(-c3cc4c(N5CCN(C(=O)OC6COC6)CC5)ccnc4[nH]3)cc2)C1 [Compound 468]
≤ 0.01 µM	0.1 to 0.5 µM	CC(C)c1csc(-c2cc3c(N4CCN(C(=O)OC5COC5)CC4)ccnc3[nH]2)n1 [Compound 317]

IC50 [1]	IC50 [2]	Compound
≤ 0.01 µM	0.1 to 0.5 µM	Cn1cc(-c2cc3c(N4CCN(C(=O)OC5CC(F)(F)C5(F)F)CC4)ccnc3[nH]2)cn1 (centres unmarked) [Compound 399]
≤ 0.01 µM	≤ 0.1 µM	CCN1CC[C@H](c2ccc(-c3cc4c(N5CCN(C(=O)C6CC6)CC5)ccnc4[nH]3)cc2)C(F)(F)C1 [Compound 459]
≤ 0.01 µM	≤ 0.1 µM	N#Cc1c(-c2cnn(C(F)F)c2)[nH]c2nccc(N3CCN(C(=O)OC4COC4)CC3)c12 [Compound 376]
≤ 0.01 µM	≤ 0.1 µM	Cn1cc(-c2[nH]c3nccc(N4CCN(C(=O)O[C@H]5C[C@H](F)C5)CC4)c3c2Cl)cn1 [Compound 340]
≤ 0.01 µM	≤ 0.1 µM	Cn1cc(-c2[nH]c3nccc(N4CCN(C(=O)OCC(F)F)CC4)c3c2C#N)cn1 [Compound 256]
≤ 0.01 µM	≤ 0.1 µM	Cn1cc(-c2[nH]c3nccc(N4CCN(C(=O)O[C@H]5C[C@H](F)C5)CC4)c3c2C#N)cn1 [Compound 295]
≤ 0.01 µM	≤ 0.1 µM	Cc1nc(-c2cc3c(N4CCN(C(=O)OC5COC5)CC4)ccnc3[nH]2)sc1C [Compound 250]
≤ 0.01 µM	≤ 0.1 µM	O=C(C1CC1)N1CCN(c2ccnc3[nH]c(-c4ccc(C5CCNCC5F)cc4)cc23)CC1 (centres unmarked) [Compound 389]
≤ 0.01 µM	≤ 0.1 µM	Cn1cc(-c2[nH]c3nccc(N4CCN(C(=O)O[C@@H]5CCC5(F)F)CC4)c3c2C#N)cn1 [Compound 366]
≤ 0.01 µM	0.1 to 0.5 µM	CN1CCN(C(=O)COc2ccc(-c3cc4c(N5CCN(C(=O)C6CC6)CC5)ccnc4[nH]3)cc2)CC1 [Compound 464]
≤ 0.01 µM	≤ 0.1 µM	Cn1cc(-c2cc3c(N4CCN(C(=O)O[C@@H]5CC(F)(F)C5(F)F)CC4)ccnc3[nH]2)cn1 [Compound 398]
≤ 0.01 µM	≤ 0.1 µM	CCOC(=O)N1CCN(c2ccnc3[nH]c(-c4cnn(C)c4)c(Br)c23)CC1 [Compound 341]
≤ 0.01 µM	≤ 0.1 µM	O=C(C1CC1)N1CCN(c2ccnc3[nH]c(-c4ccc(C5CCNCC5(F)F)cc4)cc23)CC1 (centres unmarked) [Compound 431]
≤ 0.01 µM	≤ 0.1 µM	Cc1c(-c2cc3c(N4CCN(C(=O)[C@H]5CC[C@H](C#N)CC5)CC4)ccnc3[nH]2)cnn1C(C)C [Compound 423]
≤ 0.01 µM	≤ 0.1 µM	N#Cc1c(-c2cn(C(F)F)cn2)[nH]c2nccc(N3CCN(C(=O)OC4COC4)CC3)c12 [Compound 375]

The remaining lines, values behind:

Compound	IC50 [1]	IC50 [2]
Cn1ncc(-c2cc3c(N4CCN(C(=O)OC5COC5)CC4)ccnc3[nH]2)c1C#N [Compound 210]	≤ 0.01 µM	0.1 to 0.5 µM
CCOC(=O)N1CCN(c2ccnc3[nH]c(-c4cnn(C(C)(C)C#N)c4)cc23)CC1 [Compound 213]	≤ 0.01 µM	0.1 to 0.5 µM
CCCOC(=O)N1CCN(c2ccnc3[nH]c(-c4cnn(C)c4)c(C#N)c23)CC1 [Compound 136]	≤ 0.01 µM	≤ 0.1 µM
Cc1c(-c2cnn(C)c2)[nH]c2nccc(N3CCN(C(=O)OC4COC4)CC3)c12 [Compound 148]	≤ 0.01 µM	0.1 to 0.5 µM
CCc1cnc(-c2cc3c(N4CCN(C(=O)OC5COC5)CC4)ccnc3[nH]2)s1 [Compound 249]	≤ 0.01 µM	≤ 0.1 µM
Cc1ncsc1-c1cc2c(N3CCN(C(=O)OC4COC4)CC3)ccnc2[nH]1 [Compound 175]	≤ 0.01 µM	0.1 to 0.5 µM
Cc1nc(-c2cc3c(N4CCN(C(=O)OC5CCC5)CC4)ccnc3[nH]2)cn1C [Compound 139]	≤ 0.01 µM	≤ 0.1 µM
Cc1nc(-c2cc3c(N4CCN(C(=O)OC5CC5)CC4)ccnc3[nH]2)cs1 [Compound 109]	≤ 0.01 µM	≤ 0.1 µM
CCOC(=O)N1CCN(c2ccnc3[nH]c(-c4ccc(OC(C)C)cc4)cc23)CC1 [Compound 221]	≤ 0.01 µM	0.1 to 0.5 µM
COC1CC(OC(=O)N2CCN(c3ccnc4[nH]c(-c5cnn(C)c5)cc34)CC2)C1 (centres unmarked) [Compound 233]	≤ 0.01 µM	0.1 to 0.5 µM
CCOC(=O)N1CCN(c2ccnc3[nH]c(-c4ncc(OC)cc4C#N)cc23)CC1 [Compound 204]	≤ 0.01 µM	0.1 to 0.5 µM
Cc1cnc(-c2cc3c(N4CCN(C(=O)C5CC5)CC4)ccnc3[nH]2)s1 [Compound 34]	≤ 0.01 µM	0.1 to 0.5 µM
CCOC(=O)N1CCN(c2ccnc3[nH]c(-c4cnn(C5COC5)c4)cc23)CC1 [Compound 145]	≤ 0.01 µM	≤ 0.1 µM
Cc1cnc(-c2cc3c(N4CCN(C(=O)OC5COC5)CC4)ccnc3[nH]2)s1 [Compound 174]	≤ 0.01 µM	0.1 to 0.5 µM
CCC(C)C(=O)N1CCN(c2ccnc3[nH]c(-c4cnn(C)c4)cc23)CC1 (centres unmarked) [Compound 33]	0.01 to 0.05 µM	0.1 to 0.5 µM
CC(C)OC(=O)N1CCN(c2ccnc3[nH]c(-c4cnn(C)c4)cc23)CC1 [Compound 41]	≤ 0.01 µM	0.1 to 0.5 µM
CC(C)c1ccc(-c2cc3c(N4CCN(C(=O)C5CC5)CC4)ccnc3[nH]2)cc1 [Compound 120]	≤ 0.01 µM	0.1 to 0.5 µM
CCOC(=O)N1CCN(c2ccnc3[nH]c(-c4ccn(C)n4)cc23)CC1 [Compound 12]	≤ 0.01 µM	0.1 to 0.5 µM
Cn1cc(-c2cc3c(N4CCN(C(=O)C5CCOCC5)CC4)ccnc3[nH]2)cn1 [Compound 144]	≤ 0.01 µM	> 0.5 µM
CCC(=O)N1CCN(c2ccnc3[nH]c(-c4cnn(C)c4)cc23)CC1 [Compound 2]	≤ 0.01 µM	> 0.5 µM
Cn1cc(-c2cc3c(N4CCN(C(=O)C5CCCC5)CC4)ccnc3[nH]2)cn1 [Compound 64]	≤ 0.01 µM	0.1 to 0.5 µM
Cc1nc(-c2cc3c(N4CCN(C(=O)O[C@H]5C[C@@H](F)C5)CC4)ccnc3[nH]2)cn1C [Compound 243]	≤ 0.01 µM	≤ 0.1 µM
CCOC(=O)N1CCN(c2ccnc3[nH]c(-c4ccccn4)cc23)CC1 [Compound 7]	≤ 0.01 µM	≤ 0.1 µM
CCOC(=O)N1CCN(c2ccnc3[nH]c(-c4cccnc4)cc23)CC1 [Compound 8]	≤ 0.01 µM	0.1 to 0.5 µM
